Data taken from PMC12449377, “Psychedelic-like effects induced by 2,5-dimethoxy-4-iodoamphetamine, lysergic acid diethylamide, and psilocybin in male and female C57BL/6J mice” (Psychopharmacology, 2025).
Read-outs that look alike come from different tables or passages of the source.

Tests used:
[1] = target: T1, 5-HT1A (Mus musculus, UniProt Q64264); assay: Competition binding vs [3H]8-OH-DPAT in mouse brain membranes
T1 construct: tissue BioIVT; host or cells: whole C57BL/6 mouse brain minus cerebellum, male and female
T1 sequence (Q64264 1-421): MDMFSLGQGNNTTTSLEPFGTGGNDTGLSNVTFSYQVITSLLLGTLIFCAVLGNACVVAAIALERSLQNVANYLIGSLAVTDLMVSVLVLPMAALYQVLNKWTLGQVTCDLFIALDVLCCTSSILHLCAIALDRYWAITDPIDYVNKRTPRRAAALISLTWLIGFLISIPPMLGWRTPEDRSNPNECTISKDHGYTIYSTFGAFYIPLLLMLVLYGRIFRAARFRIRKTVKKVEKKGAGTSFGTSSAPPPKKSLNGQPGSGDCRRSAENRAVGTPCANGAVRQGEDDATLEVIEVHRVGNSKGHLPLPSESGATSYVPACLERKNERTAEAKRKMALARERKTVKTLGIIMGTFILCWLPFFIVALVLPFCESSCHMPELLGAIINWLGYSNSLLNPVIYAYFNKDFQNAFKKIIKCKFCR
Method: (§1) Competition binding studies were conducted in mouse brain tissue as previously described (Glatfelter et al. [2022b]). Briefly, the experiments utilized membranes prepared from whole C57BL/6 mouse brain minus cerebellum (BioIVT, Westbury, NY, USA). […] We assessed the ability of test drugs to compete for [^3H]M100907 binding at 5-HT2A (1 nM) or [^3H]8-OH-DPAT binding at 5-HT1A (0.5 nM). Radioligands were purchased commercially (PerkinElmer, Boston, MA, USA). Nonspecific binding was determined using 10 µM ketanserin for 5-HT2A and serotonin for 5-HT1A. All data represent 3 experiments performed in triplicate.
(§2) Concentration-response data were fit to a single site non-linear regression model. For the HTR studies, potencies were determined from the ascending limb of the dose-response curves using ED50 potency values from [agonist] vs. response (variable slope, four parameter) least squares fit non-linear regression analyses, whereas efficacy was defined by the top output parameter or Emax from the aforementioned analyses. […] Best-fit values for ED50 and Emax from non-linear regression analyses were compared by extra sum-of-squares F tests. Mean effects for each behavioral endpoint were compared using two-way ANOVA (dose x sex), followed by Sidak’s multiple comparisons post-hoc test. Mean effects for pooled mouse behavioral data were compared via Welch’s ANOVA with Dunnett’s T3 post-hoc test, comparing all doses to saline vehicle controls (0 mg/kg). Alpha was set to 0.05 for all analyses.

[2] = target: T2, 5-HT2A (Mus musculus, UniProt P35363); assay: Competition binding vs [3H]M100907 in mouse brain membranes
T2 construct: tissue BioIVT; host or cells: whole C57BL/6 mouse brain minus cerebellum, male and female
Method: as §1, §2

[3] = system: C57BL/6J mice; assay: Head twitch response (HTR) in mice; format: in vivo, mouse; conditions: for HTR (total events) Mean: 30 min; for ED50: Mus musculus, sc
Method: Each drug was tested using groups of 12 mice per sex (i.e., 24 total mice per drug). Experimental sessions were conducted once every 1–2 weeks for 2 months per drug. Experimental sessions were spaced apart by at least 1 week to minimize the potential for tolerance to drug effects (Canal and Morgan [2012]; Darmani et al. [1990a]; de la Fuente Revenga et al. [2022]). Experiments were conducted during the light phase (1300–1700 local time; lights on = 0700 in a 12/12 light/dark cycle).
(§3) At 1–2 weeks prior to the beginning of experiments, mice were habituated to handling and receiving s.c. saline injections. On the day of an experiment, mice were acclimated to the testing room in their home cage for at least 30 min prior to the start of sessions. Prior to each session, mice were weighed, and resting body temperatures were recorded. Mice were then placed into experimental chambers for acclimation. Behavioral testing was carried out in TruScan mouse locomotor arenas equipped with photobeam arrays (Coulbourn Instruments, Holliston, MA, USA) that were modified with cylindrical inserts and transparent flooring to aid in semi-automated HTR detection as previously described (Glatfelter et al. [2022a]). After 5 min of acclimation, basal body temperature was recorded followed by s.c. injection of drug or vehicle, and mice were returned to test chambers for 30 min. Dose ranges for each drug were 0.03–10 mg/kg for DOI, 0.03–10 mg/kg for psilocybin, and 0.003–1 mg/kg for LSD. Mice were randomly assigned to specific doses at the beginning of the experiment and received different doses at each session.
(§4) During each session, locomotor activity was quantified via photobeam tracking of distance traveled in cm. Overhead GoPro Hero Black 7 video recordings (120 fps, 960p resolution) were analyzed using a commercially available software package from Clever Sys Inc. (Reston, VA, USA) for the measurement of HTR activity. Mouse body temperature was also collected post-session to calculate temperature change values (basal - post session temperature reading).
as §2

[4] = system: C57BL/6J mice; assay: Body temperature change in mice; format: in vivo, mouse; conditions: for Body Temp Δ (°C) Mean: post 30 min session
Method: All mice were injected s.c. with temperature transponders (14 × 2 mm, model IPTT-300, Avidity Science, Waterford Wisconsin, USA) under brief isoflurane immobilization, and were given at least 1 week to recover (Glatfelter et al. [2022b]). Mice were single housed post-implant, and for the duration of the experiments, to protect their devices from being removed by cage mates. Temperature was measured noninvasively using a handheld reader which is sensitive to the transponder signals.
as §3, §4, §2

T2 sequence (P35363 whole entry): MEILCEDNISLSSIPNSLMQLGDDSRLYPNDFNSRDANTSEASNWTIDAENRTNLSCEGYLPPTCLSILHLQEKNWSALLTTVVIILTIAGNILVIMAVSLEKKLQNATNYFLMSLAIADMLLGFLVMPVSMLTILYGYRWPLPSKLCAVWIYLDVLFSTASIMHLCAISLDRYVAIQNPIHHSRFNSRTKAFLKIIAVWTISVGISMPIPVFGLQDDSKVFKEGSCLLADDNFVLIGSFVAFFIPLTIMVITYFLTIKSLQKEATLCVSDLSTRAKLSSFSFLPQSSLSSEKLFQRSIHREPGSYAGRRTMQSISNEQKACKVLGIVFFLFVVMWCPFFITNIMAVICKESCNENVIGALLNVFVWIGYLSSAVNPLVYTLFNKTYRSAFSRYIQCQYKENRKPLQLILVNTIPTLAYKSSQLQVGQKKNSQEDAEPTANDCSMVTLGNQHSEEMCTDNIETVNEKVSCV

For CCN(CC)C(=O)[C@@H]1C=C2c3cccc4[nH]cc(c34)C[C@H]2N(C)C1 [LSD, lysergic acid diethylamide], the Ki ([1]; 5-HT1A binding affinity (Ki), males and females, male and female mouse brain membranes, summary statement) was 1 to 100 nM, the Ki ([1]; [3H]8-OH-DPAT Binding ♀ m5-HT1A Ki, female mouse brain membranes) was 0.95 nM and the Ki ([1]; [3H]8-OH-DPAT Binding ♂ m5-HT1A Ki, male mouse brain membranes) was 1.02 nM. For the same compound, the Ki ([2]; 5-HT2A binding affinity (Ki), males and females, male and female mouse brain membranes, summary statement) was 1 to 100 nM, the Ki ([2]; [3H]M100907 Binding ♀ m5-HT2A Ki, female mouse brain membranes) was 1.9 nM and the Ki ([2]; [3H]M100907 Binding ♂ m5-HT2A Ki, male mouse brain membranes) was 2.3 nM. The “HTR (total events) Mean” value ([3]; 0.003 mg/kg s.c., female mice) was 6.5 total events, the “HTR (total events) Mean” value ([3]; 0.003 mg/kg s.c., male mice) was 6.3 total events and the “HTR (total events) Mean” value ([3]; 0.003 mg/kg s.c., pooled sexes) was 6.4 total events. For the same compound, the “HTR (total events) Mean” value ([3]; 0.01 mg/kg s.c., female mice) was 10.7 total events, the “HTR (total events) Mean” value ([3]; 0.01 mg/kg s.c., male mice) was 13.5 total events and the “HTR (total events) Mean” value ([3]; 0.01 mg/kg s.c., pooled sexes) was 12.1 total events. For the same compound, the “HTR (total events) Mean” value ([3]; 0.03 mg/kg s.c., female mice) was 24.2 total events, the “HTR (total events) Mean” value ([3]; 0.03 mg/kg s.c., male mice) was 29.7 total events and the “HTR (total events) Mean” value ([3]; 0.03 mg/kg s.c., pooled sexes) was 27.2 total events. The “HTR (total events) Mean” value ([3]; 0.1 mg/kg s.c., female mice) was 43.5 total events, the “HTR (total events) Mean” value ([3]; 0.1 mg/kg s.c., male mice) was 43.7 total events and the “HTR (total events) Mean” value ([3]; 0.1 mg/kg s.c., pooled sexes) was 43.6 total events. For the same compound, the “HTR (total events) Mean” value ([3]; 0.3 mg/kg s.c., female mice) was 55.8 total events, the “HTR (total events) Mean” value ([3]; 0.3 mg/kg s.c., male mice) was 45.0 total events and the “HTR (total events) Mean” value ([3]; 0.3 mg/kg s.c., pooled sexes) was 50.4 total events. The “HTR (total events) Mean” value ([3]; 1 mg/kg s.c., female mice) was 38.0 total events, the “HTR (total events) Mean” value ([3]; 1 mg/kg s.c., male mice) was 26.2 total events and the “HTR (total events) Mean” value ([3]; 1 mg/kg s.c., pooled sexes) was 32.1 total events. For the same compound, the ED50 ([3]; female mice, ascending limb of dose-response curve, read-out: HTR ♀ ED50 (95% CI)) was 0.051 mg/kg, the ED50 ([3]; male mice, ascending limb of dose-response curve, read-out: HTR ♂ ED50 (95% CI)) was 0.024 mg/kg and the ED50 ([3]; pooled male and female mice, read-out: HTR ♂+♀ ED50 (95% CI)) was 0.035 mg/kg. The “Duration of HTR effect in the session” value ([3]; peak/active doses, 30 min session) was “trended to baseline levels by the end of the testing session”, the “Time of peak effects on HTR post drug administration” value ([3]; s.c., both sexes, 30 min session) was 5 to 10 min and the “HTR ♀ Emax (95% CI)” value ([3]; s.c., female mice, top of regression fit) was 58 (50–68) HTR events. The “HTR ♂ Emax (95% CI)” value ([3]; s.c., male mice, top of regression fit) was 46 (44–50) HTR events, the “HTR ♂+♀ Emax (95% CI)” value ([3]; s.c., pooled male and female mice) was 51 (46–60) HTR events and the “Body Temp Δ (°C) Mean” value ([4]; 0.003 mg/kg s.c., female mice) was -0.1 °C. The “Body Temp Δ (°C) Mean” value ([4]; 0.003 mg/kg s.c., male mice) was -0.1 °C, the “Body Temp Δ (°C) Mean” value ([4]; 0.003 mg/kg s.c., pooled sexes) was -0.1 °C and the “Body Temp Δ (°C) Mean” value ([4]; 0.01 mg/kg s.c., female mice) was -0.1 °C. For the same compound, the “Body Temp Δ (°C) Mean” value ([4]; 0.01 mg/kg s.c., male mice) was 0.3 °C, the “Body Temp Δ (°C) Mean” value ([4]; 0.01 mg/kg s.c., pooled sexes) was 0.1 °C and the “Body Temp Δ (°C) Mean” value ([4]; 0.03 mg/kg s.c., female mice) was -0.1 °C. For the same compound, the “Body Temp Δ (°C) Mean” value ([4]; 0.03 mg/kg s.c., male mice) was 0.0 °C, the “Body Temp Δ (°C) Mean” value ([4]; 0.03 mg/kg s.c., pooled sexes) was -0.1 °C and the “Body Temp Δ (°C) Mean” value ([4]; 0.1 mg/kg s.c., female mice) was -0.3 °C. For the same compound, the “Body Temp Δ (°C) Mean” value ([4]; 0.1 mg/kg s.c., male mice) was -0.1 °C, the “Body Temp Δ (°C) Mean” value ([4]; 0.1 mg/kg s.c., pooled sexes) was -0.2 °C and the “Body Temp Δ (°C) Mean” value ([4]; 0.3 mg/kg s.c., female mice) was -0.4 °C. For the same compound, the “Body Temp Δ (°C) Mean” value ([4]; 0.3 mg/kg s.c., male mice) was -0.1 °C, the “Body Temp Δ (°C) Mean” value ([4]; 0.3 mg/kg s.c., pooled sexes) was -0.2 °C and the “Body temperature effect at highest dose” value ([4]; 1 mg/kg s.c.) was “mild hypothermia”. The “Body Temp Δ (°C) Mean” value ([4]; 1 mg/kg s.c., female mice) was -0.9 °C, the “Body Temp Δ (°C) Mean” value ([4]; 1 mg/kg s.c., male mice) was -1.5 °C and the “Body Temp Δ (°C) Mean” value ([4]; 1 mg/kg s.c., pooled sexes) was -1.2 °C.
